From the supplement of paper PMC10627819 come the findings set out here.

Assay in all cases: Bliss interaction score (quartile over a dose matrix) (fitness difference); higher = more antagonism (negative = synergy)
The test system of assay [1] is S. aureus Newman. Put shortly:
(§1)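 Combination data were used to infer fitness under each single drug. Fitness is the OD595 at entry into stationary phase divided by the robust mean of the plate's no-drug wells, with a cap of 1. The Bliss score is the observed minus the expected product fitness, summarised by quartiles over technical, biological and donor/recipient replicates.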

For assay [2], the system named is S. aureus DSM 20231. In outline: as §1
For assay [3], the system named is B. subtilis 168. Put shortly:
as §1

Assay [4] deals with S. pneumoniae D39V. In outline: as §1
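Further: first quartile when negative (synergy) and third quartile when positive (antagonism).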

For `COc1cccc2c1C(=O)c1c(O)c3c(c(O)c1C2=O)C[C@@](O)(C(=O)CO)C[C@@H]3O[C@H]1C[C@H](N)[C@H](O)[C@H](C)O1` [Doxorubicin] + CC[C@H]1OC(=O)[C@H](C)[C@@H](O[C@H]2C[C@@](C)(OC)[C@@H](O)[C@H](C)O2)[C@H](C)[C@@H](O[C@@H]2O[C@H](C)C[C@H](N(C)C)[C@H]2O)[C@](C)(O)C[C@@H](C)C(=O)[C@H](C)[C@@H](O)[C@]1(C)O [Erythromycin], the Bliss interaction score in assay [1] came out at 0.0828; in assay [2] it was 0.0463; in assay [3], 0.0769; in assay [4], 0.0705.

For `COc1cccc2c1C(=O)c1c(O)c3c(c(O)c1C2=O)C[C@@](O)(C(=O)CO)C[C@@H]3O[C@H]1C[C@H](N)[C@H](O)[C@H](C)O1` [Doxorubicin] + CN[C@H](CC(C)C)C(=O)N[C@H]1C(=O)N[C@@H](CC(N)=O)C(=O)N[C@H]2C(=O)N[C@H]3C(=O)N[C@H](C(=O)N[C@H](C(=O)O)c4cc(O)cc(O)c4-c4cc3ccc4O)[C@H](O[C@H]3C[C@](C)(N)[C@@H](O)[C@H](C)O3)c3ccc(c(Cl)c3)Oc3cc2cc(c3O[C@@H]2O[C@H](CO)[C@@H](O)[C@H](O)[C@H]2O[C@H]2C[C@](C)(NCc3ccc(-c4ccc(Cl)cc4)cc3)[C@@H](O)[C@H](C)O2)Oc2ccc(cc2Cl)[C@H]1O [Oritavancin], the Bliss interaction score is 0.114 in assay [1], 0.0678 in assay [2], -0.0288 in assay [3] and 0.0571 in assay [4].

As for `COc1cccc2c1C(=O)c1c(O)c3c(c(O)c1C2=O)C[C@@](O)(C(=O)CO)C[C@@H]3O[C@H]1C[C@H](N)[C@H](O)[C@H](C)O1` [Doxorubicin] + CO[C@@]12[C@H](COC(N)=O)C3=C(C(=O)C(C)=C(N)C3=O)N1C[C@@H]1N[C@@H]12 [MitomycinC], the Bliss interaction score was 0.122 in assay [1], -0.0314 in assay [2], -0.269 in assay [3] and -0.0709 in assay [4].

For `COc1cccc2c1C(=O)c1c(O)c3c(c(O)c1C2=O)C[C@@](O)(C(=O)CO)C[C@@H]3O[C@H]1C[C@H](N)[C@H](O)[C@H](C)O1` [Doxorubicin] + C[C@H]1c2cccc(O)c2C(=O)C2=C(O)[C@]3(O)C(=O)C(C(N)=O)=C(O)[C@@H](N(C)C)[C@@H]3[C@@H](O)[C@@H]21 [Doxycycline], the Bliss interaction score in assay [1] is -0.0163; in assay [2], 0.0574; in assay [3], 0.0384; in assay [4], -0.144.

`COc1cccc2c1C(=O)c1c(O)c3c(c(O)c1C2=O)C[C@@](O)(C(=O)CO)C[C@@H]3O[C@H]1C[C@H](N)[C@H](O)[C@H](C)O1` [Doxorubicin] + Oc1cc(Cl)ccc1Oc1ccc(Cl)cc1Cl [Triclosan]: the Bliss interaction score is -0.0426 in assay [1], -0.0295 in assay [2], -0.0317 in assay [3] and -0.0416 in assay [4].

In the case of `C[C@H]1c2cccc(O)c2C(=O)C2=C(O)[C@]3(O)C(=O)C(C(N)=O)=C(O)[C@@H](N(C)C)[C@@H]3[C@@H](O)[C@@H]21` [Doxycycline] + CC1(C)S[C@@H]2[C@H](NC(=O)Cc3ccccc3)C(=O)N2[C@H]1C(=O)O [PenicillinG], the Bliss interaction score in assay [1] is -0.027; in assay [2], 0.0444; in assay [3] it was 0.108; in assay [4], 0.106.

In the case of `C[C@H]1c2cccc(O)c2C(=O)C2=C(O)[C@]3(O)C(=O)C(C(N)=O)=C(O)[C@@H](N(C)C)[C@@H]3[C@@H](O)[C@@H]21` [Doxycycline] + CC(=O)O[C@H]1C[C@@]2(C)[C@@H](C[C@@H](O)[C@H]3[C@@]4(C)CC[C@@H](O)[C@@H](C)[C@@H]4CC[C@@]32C)/C1=C(\CCC=C(C)C)C(=O)O [Fusidic acid], the Bliss interaction score was 0.0131 in assay [1], -0.0196 in assay [2], -0.049 in assay [3] and -0.0559 in assay [4].

For `C[C@H]1c2cccc(O)c2C(=O)C2=C(O)[C@]3(O)C(=O)C(C(N)=O)=C(O)[C@@H](N(C)C)[C@@H]3[C@@H](O)[C@@H]21` [Doxycycline] + CCCCCCCCCC(=O)N[C@@H]1[C@H]([C@@H]([C@H](O[C@H]1OC2=C3C=C4C=C2OC5=C(C=C(C=C5)[C@H]([C@H]6C(=O)N[C@@H](C7=C(C(=CC(=C7)O)OC8[C@H]([C@H]([C@@H]([C@H](O8)CO)O)O)O)C9=C(C=CC(=C9)[C@H](C(=O)N6)NC(=O)[C@@H]4NC(=O)[C@@H]1C2=CC(=CC(=C2)OC2=C(C=CC(=C2)[C@H](C(=O)N[C@H](CC2=CC(=C(O3)C=C2)Cl)C(=O)N1)N)O)O)O)C(=O)O)O[C@H]1[C@@H]([C@H]([C@@H]([C@H](O1)CO)O)O)NC(=O)C)Cl)CO)O)O [Teicoplanin], the Bliss interaction score in assay [1] (main component drawn) was 0.0478; in assay [2] (main component drawn) it was 0.118; in assay [3] (main component drawn), 0.0442; in assay [4] (main component drawn), -0.0489.

In the case of `C[C@H]1c2cccc(O)c2C(=O)C2=C(O)[C@]3(O)C(=O)C(C(N)=O)=C(O)[C@@H](N(C)C)[C@@H]3[C@@H](O)[C@@H]21` [Doxycycline] + CC[C@H]1OC(=O)[C@H](C)C(=O)[C@H](C)[C@@H](O[C@@H]2O[C@H](C)C[C@H](N(C)C)[C@H]2O)[C@](C)(OC)C[C@@H](C)C(=O)[C@H](C)[C@H]2N(CCCCn3cnc(-c4cccnc4)c3)C(=O)O[C@]12C [Telithromycin], the Bliss interaction score in assay [1] is -0.0224; in assay [2], -0.0892; in assay [3], -0.326; in assay [4], -0.261.

For `C[C@H]1c2cccc(O)c2C(=O)C2=C(O)[C@]3(O)C(=O)C(C(N)=O)=C(O)[C@@H](N(C)C)[C@@H]3[C@@H](O)[C@@H]21` [Doxycycline] + CC[C@H]1OC(=O)[C@H](C)[C@@H](O[C@H]2C[C@@](C)(OC)[C@@H](O)[C@H](C)O2)[C@H](C)[C@@H](O[C@@H]2O[C@H](C)C[C@H](N(C)C)[C@H]2O)[C@](C)(O)C[C@@H](C)C(=O)[C@H](C)[C@@H](O)[C@]1(C)O [Erythromycin], the Bliss interaction score in assay [1] is -0.0251; in assay [2], -0.0389; in assay [3], -0.162; in assay [4] it was -0.161.

Regarding `C[C@H]1c2cccc(O)c2C(=O)C2=C(O)[C@]3(O)C(=O)C(C(N)=O)=C(O)[C@@H](N(C)C)[C@@H]3[C@@H](O)[C@@H]21` [Doxycycline] + CN[C@H](CC(C)C)C(=O)N[C@H]1C(=O)N[C@@H](CC(N)=O)C(=O)N[C@H]2C(=O)N[C@H]3C(=O)N[C@H](C(=O)N[C@H](C(=O)O)c4cc(O)cc(O)c4-c4cc3ccc4O)[C@H](O[C@H]3C[C@](C)(N)[C@@H](O)[C@H](C)O3)c3ccc(c(Cl)c3)Oc3cc2cc(c3O[C@@H]2O[C@H](CO)[C@@H](O)[C@H](O)[C@H]2O[C@H]2C[C@](C)(NCc3ccc(-c4ccc(Cl)cc4)cc3)[C@@H](O)[C@H](C)O2)Oc2ccc(cc2Cl)[C@H]1O [Oritavancin], the Bliss interaction score was 0.0145 in assay [1], -0.0271 in assay [2], 0.0303 in assay [3] and 0.0456 in assay [4].

As to `C[C@H]1c2cccc(O)c2C(=O)C2=C(O)[C@]3(O)C(=O)C(C(N)=O)=C(O)[C@@H](N(C)C)[C@@H]3[C@@H](O)[C@@H]21` [Doxycycline] + CO[C@@]12[C@H](COC(N)=O)C3=C(C(=O)C(C)=C(N)C3=O)N1C[C@@H]1N[C@@H]12 [MitomycinC], the Bliss interaction score in assay [1] was 0.0515; in assay [2] it was -0.0478; in assay [3], 0.0704; in assay [4], -0.0943.

Regarding `C[C@H]1c2cccc(O)c2C(=O)C2=C(O)[C@]3(O)C(=O)C(C(N)=O)=C(O)[C@@H](N(C)C)[C@@H]3[C@@H](O)[C@@H]21` [Doxycycline] + Oc1cc(Cl)ccc1Oc1ccc(Cl)cc1Cl [Triclosan], the Bliss interaction score in assay [1] is 0.0244; in assay [2], -0.0352; in assay [3] it was -0.0554; in assay [4], 0.0668.
